Test results published in article PMC9271048, “Probing strigolactone perception mechanisms with rationally designed small-molecule agonists stimulating germination of root parasitic weeds” (Nature Communications, 2022).

What was measured:
[1] = system: ShHTL7S95C; assay: Hydrolysis reaction analysis with ShHTL7 S95C mutant; type: biochemical, Striga hermonthica; conditions: Supplementary Fig. 24a
Protocol: (§1) Compounds 4a, (R)- and (S)-4a, 4g-i, and rac-GR24 were dissolved in DMSO and prepared as stock solution ([…]) just before use. A 200 μL of the reaction solution consisting of PBS buffer (pH 7.3), 10 μM samples, and 10 μg recombinant ShHTL7 or its mutants was incubated at 30 °C for 30 min; with the reaction solution (200 μL) containing PBS buffer (pH 7.3) and 10 μM samples as the blank control[40],[52]. Subsequently, the reaction was terminated by adding 200 μL of methanol, and then the reaction mixture was shaken for 10 s and centrifuged at 5310 × g for 60 s. The supernatant was filtered and the remaining amount of samples was analyzed by HPLC. The relative percentages of hydrolysis were obtained by using the amount of compounds in blank control as reference.
Supplementary Fig. 24. a, Relative percentage of hydrolysis of compound 4g by ShHTL7S95A, ShHTL7S95C, and ShHTL7. b, LC-MS analysis of the full-length His-tagged ShHTL7 in native condition. c, LC-MS analysis of the full-length His-tagged ShHTL7S95A in native condition, the mass of 34699 Da (reduction of […] compared with that of ShHTL7) is the peak of ShHTL7S95A. d, LC-MS analysis of full-length His-tagged ShHTL7S95C in native condition, the mass increment of 18 Da […]

[2] = system: ShHTL7S95A; assay: Hydrolysis reaction analysis with ShHTL7 S95A mutant; type: biochemical, Striga hermonthica; conditions: Supplementary Figs. 20a, 24a
Protocol: as §1
(§2) Supplementary Fig. 20. Effect of key amino acid residues on the hydrolysis of ShHTL7 and binding affinity. a, Relative percentage of hydrolysis of compound (S)-4a by ShHTL7S95A, ShHTL7H246A, and ShHTL7. The error bar indicates SD (n = 3 biologically independent experiments). b, Competitive mutants of ShHTL7 inhibitory activity in YLG assay. Data are the means ± SD (n = 3 biologically independent experiments).
(1 picture or pasted object on this page, not shown here) […]

[3] = target: ShHTL7 M219V (Striga hermonthica, UniProt A0A0M3PNA2, M219V); assay: YLG competitive inhibition, ShHTL7 mutant M219V; type: biochemical
From the text: (§3) To clarify the dynamics of how the catalytic triad affects hydrolysis by ShHTL7, we performed MD simulations to study the differences between (R)-4a and (S)-4a (Supplementary Fig. 21). […] To further characterize our computational models, we performed mutation studies of the key residues in the active pockets that may have interactions with our molecules. Indeed, a number of the mutations of specific residues altered the IC50 values, supporting our simulated models (Supplementary Fig. 20b).
(§4) The excitation and emission wavelengths of YLG are 480 and 520 nm, respectively. We used a fluorescence spectrophotometer (CARY Eclipse) to detect the fluorescence intensity change of YLG during the enzymatic hydrolysis assay process. All the testing compounds and YLG were dissolved in DMSO and prepared as stock solutions just before use. […] The changes of fluorescence at 520 nm of each well were recorded every 1 min for 30 min. Using the reaction mixture without adding enzyme and tested compounds as the background control. After subtracting the background hydrolysis, a linear fluorescence increase in 8 min was used for further inspection. The IC50 values were determined via fitting relative inhibition percentages with the varying concentrations of compounds in Microsoft Excel.
(§5) Supplementary Fig. 20. […]

[4] = target: ShHTL7 F134K (Striga hermonthica, UniProt A0A0M3PNA2, F134K); assay: YLG competitive inhibition, ShHTL7 mutant F134K; type: biochemical
From the text: as §3, §4, §5

[5] = target: ShHTL7 T142L (Striga hermonthica, UniProt A0A0M3PNA2, T142L); assay: YLG competitive inhibition, ShHTL7 mutant T142L; type: biochemical
From the text: as §3, §4, §5

[6] = target: ShHTL7 T124K (Striga hermonthica, UniProt A0A0M3PNA2); assay: YLG competitive inhibition, ShHTL7 mutant T124K; type: biochemical; conditions: read-out: IC50 (YLG), ShHTL7 mutant, source data average, Supplementary Fig. 20b
From the text: as §3, §4, §5

[7] = target: ShHTL7 F134A (Striga hermonthica, UniProt A0A0M3PNA2, F134A); assay: YLG competitive inhibition, ShHTL7 mutant F134A; type: biochemical
From the text: as §3, §4, §5

[8] = target: ShHTL7 T157A (Striga hermonthica, UniProt A0A0M3PNA2, T157A); assay: YLG competitive inhibition, ShHTL7 mutant T157A; type: biochemical
From the text: as §3, §4, §5

[9] = target: ShHTL7 Y26F (Striga hermonthica, UniProt A0A0M3PNA2, Y26F); assay: YLG competitive inhibition, ShHTL7 mutant Y26F; type: biochemical
From the text: as §3, §4, §5

[10] = target: ShHTL7 T157Y (Striga hermonthica, UniProt A0A0M3PNA2, T157Y); assay: YLG competitive inhibition, ShHTL7 mutant T157Y; type: biochemical
From the text: as §3, §4, §5

[11] = target: ShHTL7 T121S (Striga hermonthica, UniProt A0A0M3PNA2, T121S); assay: YLG competitive inhibition, ShHTL7 mutant T121S; type: biochemical
From the text: as §3, §4, §5

[12] = target: ShHTL7 T190G (Striga hermonthica, UniProt A0A0M3PNA2, T190G); assay: YLG competitive inhibition, ShHTL7 mutant T190G; type: biochemical
From the text: as §3, §4, §5

[13] = target: ShHTL7 T190F (Striga hermonthica, UniProt A0A0M3PNA2, T190F); assay: YLG competitive inhibition, ShHTL7 mutant T190F; type: biochemical
From the text: as §3, §4, §5

[14] = system: ShHTL7H246A; assay: Hydrolysis reaction analysis with ShHTL7 H246A mutant; type: biochemical, Striga hermonthica; conditions: Supplementary Fig. 20a
Protocol: as §1, §2
(1 picture or pasted object on this page, not shown here)

Sequence of ShHTL7 M219V (A0A0M3PNA2 whole entry M219V): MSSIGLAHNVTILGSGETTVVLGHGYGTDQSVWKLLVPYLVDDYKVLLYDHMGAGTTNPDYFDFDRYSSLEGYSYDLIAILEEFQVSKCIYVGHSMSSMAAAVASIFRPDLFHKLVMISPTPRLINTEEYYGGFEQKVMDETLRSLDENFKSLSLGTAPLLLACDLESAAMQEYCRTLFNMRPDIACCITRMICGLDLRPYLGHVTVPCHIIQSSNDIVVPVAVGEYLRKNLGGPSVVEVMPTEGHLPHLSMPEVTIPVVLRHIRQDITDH
Sequence of ShHTL7 T190F (A0A0M3PNA2 whole entry T190F): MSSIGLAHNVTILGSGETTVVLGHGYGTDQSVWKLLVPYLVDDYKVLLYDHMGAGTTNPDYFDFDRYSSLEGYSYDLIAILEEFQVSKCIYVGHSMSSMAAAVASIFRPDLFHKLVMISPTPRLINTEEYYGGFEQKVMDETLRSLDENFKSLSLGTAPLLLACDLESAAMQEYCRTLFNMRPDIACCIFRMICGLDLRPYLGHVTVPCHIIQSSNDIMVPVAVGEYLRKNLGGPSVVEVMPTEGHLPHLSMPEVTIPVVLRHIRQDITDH
Sequence of ShHTL7 T121S (A0A0M3PNA2 whole entry T121S): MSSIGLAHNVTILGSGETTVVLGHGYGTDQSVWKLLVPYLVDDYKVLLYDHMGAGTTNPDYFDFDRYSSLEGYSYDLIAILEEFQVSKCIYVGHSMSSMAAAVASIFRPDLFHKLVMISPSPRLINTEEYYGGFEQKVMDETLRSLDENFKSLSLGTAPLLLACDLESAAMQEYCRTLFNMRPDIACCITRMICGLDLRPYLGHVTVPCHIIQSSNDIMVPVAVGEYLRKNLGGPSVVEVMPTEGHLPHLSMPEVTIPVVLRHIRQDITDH
Sequence of ShHTL7 T124K (A0A0M3PNA2 entry or part of it, stated change not applied): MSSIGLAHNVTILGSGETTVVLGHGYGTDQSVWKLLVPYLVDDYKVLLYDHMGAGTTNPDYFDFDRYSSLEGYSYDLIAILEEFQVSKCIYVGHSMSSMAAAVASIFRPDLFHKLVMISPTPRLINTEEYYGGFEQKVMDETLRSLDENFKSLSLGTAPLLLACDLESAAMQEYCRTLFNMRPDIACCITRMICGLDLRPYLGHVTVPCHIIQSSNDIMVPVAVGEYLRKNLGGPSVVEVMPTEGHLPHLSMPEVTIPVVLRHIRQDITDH
Sequence of ShHTL7 F134K (A0A0M3PNA2 whole entry F134K): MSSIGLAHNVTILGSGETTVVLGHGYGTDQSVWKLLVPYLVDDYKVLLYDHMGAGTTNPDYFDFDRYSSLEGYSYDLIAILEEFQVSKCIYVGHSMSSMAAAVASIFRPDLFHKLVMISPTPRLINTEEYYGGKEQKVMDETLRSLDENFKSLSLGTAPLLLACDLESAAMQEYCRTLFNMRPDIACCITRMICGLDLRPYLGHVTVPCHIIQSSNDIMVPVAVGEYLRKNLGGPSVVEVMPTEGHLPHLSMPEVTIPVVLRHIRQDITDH
Sequence of ShHTL7 T157Y (A0A0M3PNA2 whole entry T157Y): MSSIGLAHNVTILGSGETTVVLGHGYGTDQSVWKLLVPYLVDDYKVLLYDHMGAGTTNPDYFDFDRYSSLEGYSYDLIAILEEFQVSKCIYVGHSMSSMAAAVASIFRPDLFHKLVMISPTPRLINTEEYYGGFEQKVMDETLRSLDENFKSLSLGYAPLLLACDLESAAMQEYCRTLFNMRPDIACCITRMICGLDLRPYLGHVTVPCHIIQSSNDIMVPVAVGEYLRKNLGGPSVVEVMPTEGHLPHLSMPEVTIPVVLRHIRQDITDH
Sequence of ShHTL7 F134A (A0A0M3PNA2 whole entry F134A): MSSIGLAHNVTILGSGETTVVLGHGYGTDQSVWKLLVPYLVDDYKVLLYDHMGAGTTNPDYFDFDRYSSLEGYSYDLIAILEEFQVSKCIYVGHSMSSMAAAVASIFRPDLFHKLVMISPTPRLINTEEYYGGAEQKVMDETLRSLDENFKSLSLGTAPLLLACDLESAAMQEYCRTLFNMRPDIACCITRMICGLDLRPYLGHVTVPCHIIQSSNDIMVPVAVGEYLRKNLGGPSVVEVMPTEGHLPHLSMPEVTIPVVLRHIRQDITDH
Sequence of ShHTL7 T157A (A0A0M3PNA2 whole entry T157A): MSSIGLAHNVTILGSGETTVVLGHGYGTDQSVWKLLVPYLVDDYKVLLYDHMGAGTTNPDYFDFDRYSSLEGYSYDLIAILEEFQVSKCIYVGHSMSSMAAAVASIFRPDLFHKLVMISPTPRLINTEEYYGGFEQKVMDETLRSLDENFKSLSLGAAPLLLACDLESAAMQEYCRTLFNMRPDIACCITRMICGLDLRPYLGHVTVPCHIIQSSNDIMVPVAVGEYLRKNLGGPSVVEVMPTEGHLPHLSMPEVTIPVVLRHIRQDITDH
Sequence of ShHTL7 Y26F (A0A0M3PNA2 whole entry Y26F): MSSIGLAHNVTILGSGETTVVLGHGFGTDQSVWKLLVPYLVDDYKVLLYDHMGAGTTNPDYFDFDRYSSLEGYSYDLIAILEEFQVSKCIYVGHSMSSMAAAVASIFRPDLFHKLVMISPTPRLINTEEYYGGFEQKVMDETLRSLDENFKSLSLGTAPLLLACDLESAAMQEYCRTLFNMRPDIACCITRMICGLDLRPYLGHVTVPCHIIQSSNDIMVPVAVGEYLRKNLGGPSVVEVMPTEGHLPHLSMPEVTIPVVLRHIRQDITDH
Sequence of ShHTL7 T142L (A0A0M3PNA2 whole entry T142L): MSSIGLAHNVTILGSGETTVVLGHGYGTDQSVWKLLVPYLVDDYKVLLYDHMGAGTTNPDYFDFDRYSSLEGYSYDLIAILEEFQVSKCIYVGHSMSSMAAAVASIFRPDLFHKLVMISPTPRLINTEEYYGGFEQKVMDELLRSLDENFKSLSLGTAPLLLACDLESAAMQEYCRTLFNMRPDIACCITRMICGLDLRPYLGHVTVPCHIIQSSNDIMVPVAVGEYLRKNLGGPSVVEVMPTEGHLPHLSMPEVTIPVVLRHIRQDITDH
Sequence of ShHTL7 T190G (A0A0M3PNA2 whole entry T190G): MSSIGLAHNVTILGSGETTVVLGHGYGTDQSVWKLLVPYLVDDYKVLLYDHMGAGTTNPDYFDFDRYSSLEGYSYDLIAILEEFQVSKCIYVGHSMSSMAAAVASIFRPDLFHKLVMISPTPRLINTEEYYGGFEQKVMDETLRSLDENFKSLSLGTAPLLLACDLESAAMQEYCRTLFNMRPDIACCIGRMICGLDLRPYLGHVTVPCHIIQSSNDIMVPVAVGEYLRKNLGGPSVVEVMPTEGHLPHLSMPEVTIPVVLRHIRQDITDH

With `CC1=CC(OC(=O)N2CCN(C(=O)COc3ccc(Br)cc3C)CC2)CC1=O` (centres unmarked) [4g] the “relative percentage of hydrolysis by ShHTL7S95C, source data average” value [1] was 4.848% and the “relative percentage of hydrolysis by ShHTL7S95A, source data average” value [2] was 3.871%.
Work on `CC1=C[C@@H](OC(=O)N2CCN(C(=O)COc3ccc(Br)cc3C)CC2)OC1=O` [(R)-4a] yielded an IC50 [3] of 22000 nM, an IC50 [4] of 62100 nM and an IC50 [5] of 1880 nM. It also gave an IC50 [6] of 1000 nM, an IC50 [7] of 58100 nM and an IC50 [8] of 2610 nM. The IC50 [9] was 29900 nM, the IC50 [10] was 23300 nM and the IC50 [11] was 4900 nM. It also gave an IC50 [12] of 26400 nM and an IC50 [13] of 4690 nM.
With `CC1=C[C@H](OC(=O)N2CCN(C(=O)COc3ccc(Br)cc3C)CC2)OC1=O` [(S)-4a] the IC50 [3] was 347 nM, the IC50 [4] was 613 nM and the “relative percentage of hydrolysis by ShHTL7H246A, source data average” value [14] was 0.5315%. The “relative percentage of hydrolysis by ShHTL7S95A, source data average” value [2] was 1.485%, the IC50 [5] was 300 nM and the IC50 [6] was 435 nM. For the same molecule, the IC50 [7] was 531 nM, the IC50 [8] was 170 nM and the IC50 [9] was 233 nM. The IC50 [10] was 949 nM, the IC50 [11] was 800 nM and the IC50 [12] was 575 nM. The IC50 [13] was 1070 nM.
